From patent US20260166021A1, “POLYMORPHIC FORMS OF A SOLUBLE EPOXIDE HYDROLASE INHIBITOR AND FORMULATIONS THEREOF” (EicOsis, LLC, priority 2022, published 2026)
Values after ≈ are worked out from the molar mass of the structure shown. Values joined by “and” are separate entries in the source; they are usually repeats but may differ in a detail not shown here. Equal entries are not always repeated. Marks after values point to notes of the source that are not given here.

How the values were obtained:
Assay type in all cases: physicochemical
[1] = Equilibrium-solubility screening in solvents and excipients; settings: for solubility thermodynamic at 24 h: thermodynamic from solid
Protocol: For these analyses, Form D or Form C was mixed with 0.5 or 1.0 mL of solvents and equilibrated for approximately 24 hours. The mixture was filtered through 0.45 μm centrifuge filters.
As expected, the compound was not easily ionized at physiologically relevant pH. […] In addition, these excipients included surfactants, co-solvents, and lipids which are amenable for use in self-emulsifying drug delivery systems (SEDDS). The XRD pattern of the starting material was maintained for each sample after equilibrium.

[2] = Supersaturation monitoring in PEG 300; settings: PEG 300 (0.5 mL)
[3] = Differential scanning calorimetry (DSC): heat of fusion, thermal events
Protocol: Differential scanning calorimetry analyses were performed on each sample “as is.” Unless otherwise specified, samples were weighed in an aluminum pan, covered with a pierced lid, and then crimped and analyzed from 30-300° C. ramped at 10° C./min.
The DSC data were used to determine the heat of fusion for Forms A, B, D, and F, based on their heats of fusion as measured during conversion from Form C.

SMILES: CC[C@H](C)C(=O)N1CCC(NC(=O)Nc2ccc(OC(F)(F)F)c(F)c2)CC1 [Form D, (S)-1-(3-fluoro-4-(trifluoromethoxy)phenyl)-3-(1-(2-methylbutanoyl)piperidin-4-yl)urea]
- Equilibrium Solubility ([1]; Kolliphor EL): 20.4 mg/mL
- XRD Pattern At Equilibrium ([1]; Kolliphor EL): Form D
- Equilibrium Solubility ([1]; Kolliphor HS-): 37.3** mg/mL
- XRD Pattern At Equilibrium ([1]; Kolliphor HS-): Form D
- Equilibrium Solubility ([1]; Labrafil): 9.6 mg/mL
- XRD Pattern At Equilibrium ([1]; Labrafil): Form D
- Equilibrium Solubility ([1]; Labrasol): 21.8 mg/mL
- XRD Pattern At Equilibrium ([1]; Labrasol): Form D
- Equilibrium Solubility ([1]; Miglyol 810): 2.0 mg/mL
- XRD Pattern At Equilibrium ([1]; Miglyol 810): Form D
- Equilibrium Solubility ([1]; Miglyol 812): 1.9 mg/mL
- XRD Pattern At Equilibrium ([1]; Miglyol 812): Form D
- solubility thermodynamic at 24 h ([1]; NaOH solution, pH 10.0, pH 10, aqueous buffer, pH 10.0 NaOH): < 100 µg/mL
- Equilibrium Solubility ([1]; Oleic Acid): 9.0 mg/mL
- XRD Pattern At Equilibrium ([1]; Oleic Acid): Form D
- Equilibrium Solubility ([1]; PEG 300, 50%): 0.4 mg/mL and 0.5 mg/mL
- XRD Pattern At Equilibrium ([1]; PEG 300, 50%): Form D
- XRD Pattern At Equilibrium ([1]; PEG 300, 100%): Form D
- XRD Pattern At Equilibrium ([1]; PEG 400, 50%): Form D
- solubility thermodynamic at 24 h ([1]; PEG 400, 50%, aqueous with cosolvent or surfactant or cyclodextrin): 900 µg/mL (≈ 2220 µM)
- Equilibrium Solubility ([1]; PEG 400, 100%): 17.0 mg/mL
- XRD Pattern At Equilibrium ([1]; PEG 400, 100%): Form D
- solubility thermodynamic at 24 h ([1]; PEG 400, 100%, organic solvent or mixture): 20100 µg/mL (≈ 49600 µM)
- Equilibrium Solubility ([1]; Peceol): 12.9 mg/mL
- XRD Pattern At Equilibrium ([1]; Peceol): Form D
- Equilibrium Solubility ([1]; Plurol Oleique): 8.7 mg/mL
- XRD Pattern At Equilibrium ([1]; Plurol Oleique): Form D
- Equilibrium Solubility ([1]; Propylene): 24.1 mg/mL
- XRD Pattern At Equilibrium ([1]; Propylene): Form D
- XRD Pattern At Equilibrium ([1]; SLS, 1x CMC): Form C
- solubility thermodynamic at 24 h ([1]; SLS, 1x CMC, aqueous with cosolvent or surfactant or cyclodextrin): < 100 µg/mL
- Equilibrium Solubility ([1]; SLS, 5x CMC): 1.2 mg/mL
- XRD Pattern At Equilibrium ([1]; SLS, 5x CMC): Form C
- Equilibrium Solubility ([1]; SLS, 10x CMC): 1.5 mg/mL
- XRD Pattern At Equilibrium ([1]; SLS, 10x CMC): Form C
- Equilibrium Solubility ([1]; SLS, 100x CMC): 2.5 mg/mL
- XRD Pattern At Equilibrium ([1]; SLS, 100x CMC): Form C
- XRD Pattern At Equilibrium ([1]; Soybean Oil): Form D
- solubility thermodynamic at 24 h ([1]; Soybean Oil, oil or lipid): < 100 µg/mL
- Equilibrium Solubility ([1]; Sulfobutylether): 7.9 mg/mL
- XRD Pattern At Equilibrium ([1]; Sulfobutylether): Form D
- Equilibrium Solubility ([1]; Transcutol HP): 38.1 mg/mL
- XRD Pattern At Equilibrium ([1]; Transcutol HP): Form D
- Equilibrium Solubility ([1]; Triacetin): 6.4 mg/mL
- XRD Pattern At Equilibrium ([1]; Triacetin): Form D
- XRD Pattern At Equilibrium ([1]; Tween 80, 1x): Form C
- solubility thermodynamic at 24 h ([1]; Tween 80, 1x, aqueous with cosolvent or surfactant or cyclodextrin): < 100 µg/mL
- XRD Pattern At Equilibrium ([1]; Tween 80, 5x): Form C
- solubility thermodynamic at 24 h ([1]; Tween 80, 5x, aqueous with cosolvent or surfactant or cyclodextrin): < 100 µg/mL
- XRD Pattern At Equilibrium ([1]; Tween 80, 10x): Form C
- solubility thermodynamic at 24 h ([1]; Tween 80, 10x, aqueous with cosolvent or surfactant or cyclodextrin): < 100 µg/mL
- XRD Pattern At Equilibrium ([1]; Tween 80, 100x): Form C
- solubility thermodynamic at 24 h ([1]; Tween 80, 100x, aqueous with cosolvent or surfactant or cyclodextrin): < 100 µg/mL
- Equilibrium Solubility ([1]; Vitamin E): 40.6** mg/mL
- XRD Pattern At Equilibrium ([1]; Vitamin E): Form D
- XRD Pattern At Equilibrium ([1]; pH 1.0 HCl): Forms C & D
- solubility thermodynamic at 24 h ([1]; pH 1.0 HCl, pH 1, simulated gastric fluid): < 100 µg/mL
- XRD Pattern At Equilibrium ([1]; pH 7.4): Form D
- solubility thermodynamic at 24 h ([1]; pH 7.4 medium (buffer not named), pH 7.4, aqueous buffer, pH 7.4): < 100 µg/mL
- XRD Pattern At Equilibrium ([1]; pH 10.0 NaOH): Forms C & D
- Step → Observation ([2]; 100 mg/mL, 1. RT stirring for 1 hr, listed as Pattern D): 1. RT stirring for 1 hr → suspension
- Step → Observation ([2]; 100 mg/mL, 2. 40 C. heating for 0.5 hr, listed as Pattern D): 2. 40 C. heating for 0.5 hr → clear solution
- Step → Observation ([2]; 100 mg/mL, 3. RT storage for ~8 days, listed as Pattern D): 3. RT storage for ~8 days → clear solution
- Step → Observation ([2]; 100 mg/mL, 4. RT storage for ~9 days, listed as Pattern D): 4. RT storage for ~9 days → precipitation
- Step → Observation ([2]; 200 mg/mL, 1. RT stirring for 1 hr): 1. RT stirring for 1 hr →suspension
- Step → Observation ([2]; 200 mg/mL, 2. 40 C. heating for 48 hr, listed as Pattern D): 2. 40 C. heating for 48 hr →suspension
- Step → Observation ([2]; 200 mg/mL, 3. 55 C. heating for <16 hr): 3. 55 C. heating for <16 hr →clear solution
- Step → Observation ([2]; 200 mg/mL, 4. RT storage for <3.5 days): 4. RT storage for <3.5 days →precipitation
- Step → Observation ([2]; 200 mg/mL, 5. 55 C. reheating for overnight): 5. 55 C. reheating for overnight →clear solution
- Step → Observation ([2]; 200 mg/mL, 6. RT storage for overnight): 6. RT storage for overnight →precipitation
- DSC Thermal Events, Endo: melting of pattern D [3]: 143 °C melting of pattern D
- stability rank among Forms A, B, D and F ([3]; DSC, TABLE 10): highest stability
- thermodynamic stability (from heat of fusion) ([3]; DSC, TABLE 10): thermodynamically stable
- Heat of fusion ([3]; DSC, scaled-up polymorphs, measured during conversion from Form C): 67.51
